Laboratory results reported in patent US12077503B2, “Substituted cyclic amides and their use as herbicides” (FMC CORPORATION, priority 2015, dated 2024).

Key:
Type in all cases: in vivo
Kochia (Kochia scoparia) [1] = test: Test A preemergence; conditions: Bassia scoparia, pre-emergence, 240 h, preemergence, 0 to 100 scale where 0 is no effect and 100 is complete control, read-out: Kochia plant response rating; for pest or weed control at 125 g/ha: 125 g ai/ha, visual injury rating, approximately 10 d; for pest or weed control at 500 g/ha: 500 g ai/ha
Procedure, shortened: (§1)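 Visual injury scores from 0, no effect, to 100, complete control, were assigned versus untreated controls roughly 10 d after treatment in the greenhouse. Test chemicals, formulated with surfactant in a non-phytotoxic solvent, were applied to planted seeds as a preemergence soil spray or postemergence to one- to two-leaf plants 2 to 10 cm tall, in loam–sand soil.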

[2] = system: barnyardgrass (Echinochloa crus-galli); test: Test A preemergence; conditions: Echinochloa crus-galli, pre-emergence, 240 h, preemergence, 0 to 100 scale where 0 is no effect and 100 is complete control, read-out: Barnyardgrass plant response rating; for pest or weed control at 125 g/ha: 125 g ai/ha, visual injury rating, approximately 10 d; for pest or weed control at 500 g/ha: 500 g ai/ha
Procedure, shortened: as §1

[3] = system: giant foxtail (Setaria faberii); test: Test A preemergence; conditions: Setaria faberi, pre-emergence, 240 h, preemergence, 0 to 100 scale where 0 is no effect and 100 is complete control, read-out: Foxtail, Giant plant response rating; for pest or weed control at 125 g/ha: 125 g ai/ha, visual injury rating, approximately 10 d; for pest or weed control at 500 g/ha: 500 g ai/ha
Procedure, shortened: as §1

[4] = system: pigweed (Amaranthus retroflexus); test: Test A preemergence; conditions: Amaranthus retroflexus, pre-emergence, 240 h, preemergence, 0 to 100 scale where 0 is no effect and 100 is complete control, read-out: Pigweed plant response rating; for pest or weed control at 125 g/ha: 125 g ai/ha, visual injury rating, approximately 10 d; for pest or weed control at 500 g/ha: 500 g ai/ha
[5] = system: ragweed (common ragweed, Ambrosia elatior); test: Test A preemergence; conditions: Ambrosia artemisiifolia, pre-emergence, 240 h, preemergence, 0 to 100 scale where 0 is no effect and 100 is complete control, read-out: Ragweed plant response rating; for pest or weed control at 125 g/ha: 125 g ai/ha, visual injury rating, approximately 10 d; for pest or weed control at 500 g/ha: 500 g ai/ha
Procedure, shortened: as §1

[6] = system: ryegrass, Italian (Italian ryegrass, Lolium multiflorum); test: Test A preemergence; conditions: Lolium multiflorum, pre-emergence, 240 h, preemergence, 0 to 100 scale where 0 is no effect and 100 is complete control, read-out: Ryegrass, Italian plant response rating; for pest or weed control at 125 g/ha: 125 g ai/ha, visual injury rating, approximately 10 d; for pest or weed control at 500 g/ha: 500 g ai/ha
Procedure, shortened: as §1

[7] = system: Galium (catchweed bedstraw, Galium aparine); test: Test A postemergence; conditions: Galium, post-emergence, 240 h, postemergence; for pest or weed control at 125 g/ha: 125 g ai/ha, visual injury vs untreated controls after approx. 10 d, 0 = no effect, 100 = complete control, read-out: Galium plant response rating (0 to 100 scale); for pest or weed control at 500 g/ha: 500 g ai/ha, 0 to 100 scale, 0 is no effect, 100 is complete control, read-out: Galium plant response rating
Procedure, shortened: as §1

Kochia (Kochia scoparia) [8] = test: Test A postemergence; conditions: Bassia scoparia, post-emergence, 240 h, postemergence; for pest or weed control at 125 g/ha: 125 g ai/ha, visual injury vs untreated controls after approx. 10 d, 0 = no effect, 100 = complete control, read-out: Kochia plant response rating (0 to 100 scale); for pest or weed control at 500 g/ha: 500 g ai/ha, 0 to 100 scale, 0 is no effect, 100 is complete control, read-out: Kochia plant response rating
Procedure, shortened: as §1

[9] = system: barnyardgrass (Echinochloa crus-galli); test: Test A postemergence; conditions: Echinochloa crus-galli, post-emergence, 240 h, postemergence; for pest or weed control at 125 g/ha: 125 g ai/ha, visual injury vs untreated controls after approx. 10 d, 0 = no effect, 100 = complete control, read-out: Barnyardgrass plant response rating (0 to 100 scale); for pest or weed control at 500 g/ha: 500 g ai/ha, 0 to 100 scale, 0 is no effect, 100 is complete control, read-out: Barnyardgrass plant response rating
Procedure, shortened: as §1

[10] = system: blackgrass (Alopecurus myosuroides); test: Test A postemergence; conditions: Alopecurus myosuroides, post-emergence, 240 h, postemergence; for pest or weed control at 125 g/ha: 125 g ai/ha, visual injury vs untreated controls after approx. 10 d, 0 = no effect, 100 = complete control, read-out: Blackgrass plant response rating (0 to 100 scale); for pest or weed control at 500 g/ha: 500 g ai/ha, 0 to 100 scale, 0 is no effect, 100 is complete control, read-out: Blackgrass plant response rating
Procedure, shortened: as §1

corn (Zea mays) = test: Test A postemergence; conditions: Zea mays, post-emergence, 240 h, postemergence; for plant injury at 125 g/ha: 125 g ai/ha, visual injury vs untreated controls after approx. 10 d, 0 = no effect, 100 = complete control, read-out: Corn plant response rating (0 to 100 scale); for plant injury at 500 g/ha: 500 g ai/ha, 0 to 100 scale, 0 is no effect, 100 is complete control, read-out: Corn plant response rating
Procedure, shortened: as §1

[11] = system: giant foxtail (Setaria faberii); test: Test A postemergence; conditions: Setaria faberi, post-emergence, 240 h, postemergence; for pest or weed control at 125 g/ha: 125 g ai/ha, visual injury vs untreated controls after approx. 10 d, 0 = no effect, 100 = complete control, read-out: Foxtail, Giant plant response rating (0 to 100 scale); for pest or weed control at 500 g/ha: 500 g ai/ha, 0 to 100 scale, 0 is no effect, 100 is complete control, read-out: Foxtail, Giant plant response rating
Procedure, shortened: as §1

[12] = system: pigweed (Amaranthus retroflexus); test: Test A postemergence; conditions: Amaranthus retroflexus, post-emergence, 240 h, postemergence; for pest or weed control at 125 g/ha: 125 g ai/ha, visual injury vs untreated controls after approx. 10 d, 0 = no effect, 100 = complete control, read-out: Pigweed plant response rating (0 to 100 scale); for pest or weed control at 500 g/ha: 500 g ai/ha, 0 to 100 scale, 0 is no effect, 100 is complete control, read-out: Pigweed plant response rating
Procedure, shortened: as §1

[13] = system: ragweed (common ragweed, Ambrosia elatior); test: Test A postemergence; conditions: Ambrosia artemisiifolia, post-emergence, 240 h, postemergence; for pest or weed control at 125 g/ha: 125 g ai/ha, visual injury vs untreated controls after approx. 10 d, 0 = no effect, 100 = complete control, read-out: Ragweed plant response rating (0 to 100 scale); for pest or weed control at 500 g/ha: 500 g ai/ha, 0 to 100 scale, 0 is no effect, 100 is complete control, read-out: Ragweed plant response rating
Procedure, shortened: as §1

[14] = system: ryegrass, Italian (Italian ryegrass, Lolium multiflorum); test: Test A postemergence; conditions: Lolium multiflorum, post-emergence, 240 h, postemergence; for pest or weed control at 125 g/ha: 125 g ai/ha, visual injury vs untreated controls after approx. 10 d, 0 = no effect, 100 = complete control, read-out: Ryegrass, Italian plant response rating (0 to 100 scale); for pest or weed control at 500 g/ha: 500 g ai/ha, 0 to 100 scale, 0 is no effect, 100 is complete control, read-out: Ryegrass, Italian plant response rating
Procedure, shortened: as §1

[15] = system: wheat (Triticum aestivum); test: Test A postemergence; conditions: Triticum aestivum, post-emergence, 240 h, postemergence; for plant injury at 125 g/ha: 125 g ai/ha, visual injury vs untreated controls after approx. 10 d, 0 = no effect, 100 = complete control, read-out: Wheat plant response rating (0 to 100 scale); for plant injury at 500 g/ha: 500 g ai/ha, 0 to 100 scale, 0 is no effect, 100 is complete control, read-out: Wheat plant response rating
Procedure, shortened: as §1

Compound	pest or weed control at 125 g/ha (Kochia (Kochia scoparia) [1])	pest or weed control at 500 g/ha (Kochia (Kochia scoparia) [1])	pest or weed control at 125 g/ha [2]	pest or weed control at 500 g/ha [2]	pest or weed control at 125 g/ha [3]	pest or weed control at 500 g/ha [3]	pest or weed control at 125 g/ha [4]	pest or weed control at 500 g/ha [4]	pest or weed control at 125 g/ha [5]	pest or weed control at 500 g/ha [5]	pest or weed control at 125 g/ha [6]	pest or weed control at 500 g/ha [6]	pest or weed control at 125 g/ha [7]	pest or weed control at 500 g/ha [7]	pest or weed control at 125 g/ha (Kochia (Kochia scoparia) [8])	pest or weed control at 500 g/ha (Kochia (Kochia scoparia) [8])	pest or weed control at 125 g/ha [9]	pest or weed control at 500 g/ha [9]	pest or weed control at 125 g/ha [10]	pest or weed control at 500 g/ha [10]	further results
N#Cc1cc([C@H]2CNC(=O)[C@@H]2C(=O)Nc2ccccc2F)ccc1F [Compound 1199]	0%	0%	90%	100%	90%	100%	0%	60%	30%	90%	0%	0%	20%	40%	20%	40%	70%	100%	0%	0%	plant injury at 125 g/ha (corn (Zea mays)): 0%; plant injury at 500 g/ha (corn (Zea mays)): 0%; pest or weed control at 125 g/ha [11]: 70%; pest or weed control at 500 g/ha [11]: 90%; pest or weed control at 125 g/ha [12]: 0%; pest or weed control at 500 g/ha [12]: 20%; pest or weed control at 125 g/ha [13]: 0%; pest or weed control at 500 g/ha [13]: 0%; pest or weed control at 125 g/ha [14]: 0%; pest or weed control at 500 g/ha [14]: 20%; plant injury at 125 g/ha [15]: 0%; plant injury at 500 g/ha [15]: 0%
Cc1cc([C@H]2CN(C)C(=O)[C@@H]2C(=O)Nc2ccccc2F)no1 [Compound 1194]	0%	0%	0%	30%	0%	20%	0%	0%	0%	0%	0%	0%	0%	0%	0%	0%	0%	20%	0%	0%	plant injury at 125 g/ha (corn (Zea mays)): 0%; plant injury at 500 g/ha (corn (Zea mays)): 0%; pest or weed control at 125 g/ha [11]: 0%; pest or weed control at 500 g/ha [11]: 20%; pest or weed control at 125 g/ha [12]: 0%; pest or weed control at 500 g/ha [12]: 0%; pest or weed control at 125 g/ha [13]: 0%; pest or weed control at 500 g/ha [13]: 0%; pest or weed control at 125 g/ha [14]: 0%; pest or weed control at 500 g/ha [14]: 0%; plant injury at 125 g/ha [15]: 0%; plant injury at 500 g/ha [15]: 0%
